The nature of series [1]: Rat brain disposition after oral gavage. Format: in vivo, male Sprague-Dawley rats. Conditions: male, Sprague-Dawley, mean ± stdev; for Kp at 1 h / Kp uu at 1 h / concentration at 1 h: oral 5 mg/kg. How it is done:
Brain disposition was evaluated in male Sprague-Dawley rats (n=3, standard body weight). Briefly, test compound was formulated as a simple suspension (0.5% HPMC in water) then administered by oral gavage (10 mg/kg, 10 mL/kg or 5 mg/kg, 10 mL/kg). At the designated time point (0.5 or 1 h post dose) rats were sacrificed and terminal blood and brain samples taken. Isolated plasma and brain homogenates were extracted by standard protein precipitation in acetonitrile, containing internal standard. Diluted extracts were analyzed by liquid-chromatography coupled with tandem mass spectrometry detection (LC-MS/MS) using a bioanalytical method. Concentrations of test compound in plasma and brain were quantified against matrix matched calibration standards. The total plasma and brain concentration time data are presented in Table 4 alongside the calculated brain Kp (total brain concentration:total plasma concentration ratio).
The total brain-to-plasma partition coefficient (brain Kp) is given by the ratio of the total brain concentration and total plasma concentration of the compound according to the equation below: […]
Based on the measured rat fuplasma and fubrain values and the brain Kp the unbound brain-to-plasma partition coefficient (brain Kp,uu for each compound was calculated. The Kp,uu parameter describes the extent of brain penetration for each compound, i.e. the parameter gives a direct quantitative description of how the blood-brain barrier (BBB) handles the compounds regarding passive transport and active influx/efflux. The brain Kp,uu is given by the equation below: […]

Series [2] can be described thus: Fraction unbound in rat plasma and brain homogenate by equilibrium dialysis. Format: in vitro ADME, male Sprague-Dawley rat. Conditions: 1 μM, equilibrium dialysis 5 h at 37° C.; for fubrain (% free): rat brain homogenate; for fuplasma (% free): rat plasma. As to the method: The fraction of unbound compound in male Sprague-Dawley rat plasma (fuplasma) and brain homogenate (fubrain) were determined by equilibrium dialysis using 96-well HTD-dialysis plates with dialysis membranes (molecular weight cut off 12-14 KDa). One side of the HTD-dialysis plate was loaded with matrix (plasma or brain homogenate) and the other side with buffer (100 mM sodium phosphate buffer, pH 7.4). Test compounds were dissolved in DMSO then spiked (5 μL of 0.2 mM) into blank (995 μL) plasma or diluted brain homogenate (1:4 ratio in phosphate buffer) giving a final nominal concentration 1 μM (≤0.5% DMSO). The matrices were loaded into respective chambers and equilibrated against phosphate buffer for 5 h at 37° C. (in a humidified air incubator with 5% CO2 with shaking). Samples from both chambers (buffer and plasma or brain homogenate) were aliquoted to fresh 96-well polypropylene plates then matrix matched using an equal volume of opposite blank matrix before extraction with cold solvent (3 volumes acetonitrile) containing an appropriate bioanalytical internal standard. After centrifugation (20 min, 3200 g, 4° C.) the supernatants were diluted with appropriate volumes of water and compound concentrations were quantified by LC/MS-MS against matrix matched calibration standards. The fuplasma and fubrain were calculated according to equation 4 below.
[formula] Where [F] is the compound concentration on the buffer (receiver) side of the membrane; [T] is the compound concentration on the plasma or brain (donor) side of the membrane; D is the matrix dilution factor which is determined as D=4 for brain matrix and D=1 for plasma matrix in these assays.

In series [3] the target is T1, LRRK2 WT (Homo sapiens (Human), UniProt Q5S007). As to the kind of experiment: LRRK2 wild-type LanthaScreen TR-FRET kinase activity assay. The class given is biochemical. To be noted: 1 nM kinase, 1.3 mM ATP, n≥2 tests. As to the method: (§1) LRRK2 kinase activity was measured using a LanthaScreen kinase activity assay available from Invitrogen (Life Technologies Corporation). […] The phosphorylated peptide is recognized by a terbium-labelled phospho-specific anti-LRRKtide antibody (pLRRKtide antibody), obtainable from Life Technologies Corporation) and, subsequently, the phosphorylated LRRKtide can be quantified by the extent of TR-FRET between the terbium donor and fluorescein acceptor.
T1 sequence (Q5S007 970-2527): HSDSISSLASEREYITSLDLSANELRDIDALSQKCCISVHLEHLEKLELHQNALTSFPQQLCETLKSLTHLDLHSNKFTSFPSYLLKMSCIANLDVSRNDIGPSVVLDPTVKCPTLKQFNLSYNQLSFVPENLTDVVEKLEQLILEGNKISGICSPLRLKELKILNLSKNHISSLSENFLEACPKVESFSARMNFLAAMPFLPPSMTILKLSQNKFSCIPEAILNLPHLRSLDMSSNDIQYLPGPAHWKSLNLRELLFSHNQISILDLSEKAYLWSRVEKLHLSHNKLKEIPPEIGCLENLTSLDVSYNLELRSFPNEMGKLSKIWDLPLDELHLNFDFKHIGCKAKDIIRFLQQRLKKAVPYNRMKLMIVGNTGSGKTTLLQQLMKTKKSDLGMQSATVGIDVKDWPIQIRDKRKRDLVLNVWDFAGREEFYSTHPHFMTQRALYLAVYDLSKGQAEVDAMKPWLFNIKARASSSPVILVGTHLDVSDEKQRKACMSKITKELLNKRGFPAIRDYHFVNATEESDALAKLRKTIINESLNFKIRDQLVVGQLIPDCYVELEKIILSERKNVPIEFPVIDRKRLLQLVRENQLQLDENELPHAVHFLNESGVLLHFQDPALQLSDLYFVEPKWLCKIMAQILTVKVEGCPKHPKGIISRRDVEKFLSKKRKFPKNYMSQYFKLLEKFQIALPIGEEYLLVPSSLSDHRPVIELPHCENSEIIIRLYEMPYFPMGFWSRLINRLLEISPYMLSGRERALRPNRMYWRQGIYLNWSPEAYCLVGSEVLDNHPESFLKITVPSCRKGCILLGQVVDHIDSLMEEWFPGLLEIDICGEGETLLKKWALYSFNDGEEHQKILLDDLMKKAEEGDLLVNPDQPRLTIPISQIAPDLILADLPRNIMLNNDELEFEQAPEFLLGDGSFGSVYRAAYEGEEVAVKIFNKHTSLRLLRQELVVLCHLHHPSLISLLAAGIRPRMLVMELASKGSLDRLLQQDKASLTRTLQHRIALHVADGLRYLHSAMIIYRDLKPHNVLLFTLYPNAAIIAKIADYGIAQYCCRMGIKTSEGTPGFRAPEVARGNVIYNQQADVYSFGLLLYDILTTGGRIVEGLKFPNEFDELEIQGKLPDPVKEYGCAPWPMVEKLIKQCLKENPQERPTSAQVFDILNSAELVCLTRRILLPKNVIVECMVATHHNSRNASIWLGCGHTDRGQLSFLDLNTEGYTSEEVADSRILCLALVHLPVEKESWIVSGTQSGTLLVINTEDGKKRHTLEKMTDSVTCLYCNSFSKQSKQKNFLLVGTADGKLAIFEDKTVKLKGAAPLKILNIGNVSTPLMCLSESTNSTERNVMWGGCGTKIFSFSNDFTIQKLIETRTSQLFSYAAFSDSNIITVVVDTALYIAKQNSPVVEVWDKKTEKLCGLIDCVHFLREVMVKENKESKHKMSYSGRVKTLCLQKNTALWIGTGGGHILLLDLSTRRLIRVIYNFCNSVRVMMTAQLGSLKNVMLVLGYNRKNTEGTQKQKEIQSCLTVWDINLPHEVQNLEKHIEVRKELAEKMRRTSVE
(§2) As discussed above, this mutation increases the kinase activity relative to the wild type. The kinase reactions were performed in a 20 μL volume in 384-well plates. The kinase reaction buffer consisted of 50 mM Tris pH 8.5, 0.01% BRIJ-35, 10 mM MgCl2, 1 mM EGTA, and 2 mM DTT.
(§3) The mixture was further incubated for 30 minutes at RT. TR-FRET was measured by excitation of the terbium-donor with 340 nm light and subsequent (delay time […]) measurement of terbium and fluorescein emission at 495 nm and 520 nm, respectively, over a time window of […]. The measurement was repeated 30 times for fluorescein and 30 times for terbium emission with a […] between repeats. TR-FRET measurements were performed on a Biotek Synergy plate. The TR-FRET signal was calculated as the emission-ratio at 520 nm over 495 nm.
(§4) Test compound potency (IC50) was estimated by nonlinear regression using the sigmoidal dose-response (variable slope) using Xlfit 4 (IDBS, Guildford, Surrey, UK, model 205). Were the IC50 could not be determined the % inhibition at the highest tested concentration is given by equation 1. Equation (1): y=(A+((B−A)/(1+((C/x)^D)))) (1)
(§5) where y is the normalized TR-TRET ratio measurement for a given concentration of test compound, x is the concentration of test compound, A is the estimated efficacy (% inhibition) at infinite compound dilution, and B is the maximal efficacy (% inhibition). C is the IC50 value and D is the Hill slope coefficient. IC50 estimates were obtained from independent experiment and the logarithmic average was calculated.

Series [4] has as its target T1, LRRK2 WT. Nature of the series: LRRK2 wild-type ADP-Glo kinase assay. The class given is biochemical. To be noted: 0.5 nM kinase; 1.0 mM ATP; IC50=Ki,app+[E]/2; n≥2 tests; read-out: LRRK2 WT ADPGlo IC50. How it is done:
LRRK2 kinase activity was measured using an ADP-Glo kinase assay from Promega Corporation. The assay is a homogeneous luminescence-based assay that measures ADP formed from a kinase reaction. The ADP is converted into ATP, which is used to generate light in a luciferase reaction. The luminescence generated correlates with kinase activity.
The LRRK2 kinase was obtained from Invitrogen (Life Technologies Corporation) and comprises residue 970 to 2527 of the full length human wild-type LRRK2 kinase. The kinase reactions were performed in a 10 μL volume in 384-well plates. The kinase reaction buffer consisted of 50 mM Tris pH 8.5, 0.01% BRIJ-35, 10 mM MgCl2, 1 mM EGTA, and 2 mM DTT.
The reaction mixture (10 μl total volume) was incubated for 3 hours at room temperature (RT, ca. 25° C.), before the reaction was terminated by addition of 10 μl ADP-Glo reagent. The mixture was further incubated for 60 minutes at RT before addition of 20 μl Kinase detection reagent from the ADP-Glo assay kit. Luminescence signal was measure on a BMG Labtech Pherastar FSX multimode microplate reader. The signal integration time was 0.5 s.
Test compound potency (Ki,app) was estimated by nonlinear regression using the tight-binding fit model in GeneData Screener (GeneData AG). In cases where the Ki,app could not be determined, the % inhibition at the highest tested concentration is reported. The tight-binding fit model is given by euquation (2). […] Ki,app is the apparent dissociation constant of the inhibitor. The IC50 can be calculated as given by equation (3). Equation (3): IC50=Ki,app+[E]/2 (3) IC50 estimates were obtained from independent experiment and the logarithmic average was calculated.

The target in another series is LRRK2 G2019S (Homo sapiens (Human), UniProt Q5S007, G2019S). Nature of the series: LRRK2 G2019S LanthaScreen TR-FRET kinase activity assay. Format: biochemical. Conditions: 250 pM kinase, 1.3 mM ATP, n≥2 tests. How it is done:
as §1, §2, §3, §4, §5

Series [5] in a line: Hepatic microsomal intrinsic clearance assay. The class given is in vitro ADME. Conditions: for CLint scaled at 1 μM: pooled liver microsomes, pH 7.4, liver microsomes 0.5 mg/mL, NADPH, 1 hour at 37° C., LLOQ 0.36 L/h/kg. How it is done: Compounds (final concentration 1 μM, 1% organic) of the invention were incubated for 1 hour at 37° C., with shaking, in phosphate buffer (pH 7.4) containing commercially sourced pooled liver microsomes (final concentration 0.5 mg/mL). […] At designated time points (0, 5, 10, 20, 30 and 60 minutes) ice-cold acetonitrile containing internal standard (300 μL) was added to an incubation well to stop the reaction then mixed and centrifuged (3220 g for 20 minutes at 4° C.). Supernatant was diluted (1:4) with deionized water then analyzed by LC-MS/MS.

[6] abbreviates: brain, n=3, read-out: Total brain concentration.
The mark [7] stands for this setting: plasma, n=3, read-out: Total plasma concentration.
Where [8] appears, read: brain, oral 10 mg/kg, 0.5 h, n=3.

Like-named read-outs stand apart in the source and are kept apart here.

Chain of LRRK2 G2019S (Q5S007 970-2527 G2019S): as the sequence (Q5S007 970-2527) above, with G1050S counted along it

Take `Cc1c2c(nn1-c1cccnc1OC(F)F)OCCCn1nc(Cl)c3cnc(nc31)N2` [Example 19, 8-Chloro-2-(2-(difluoromethoxy)pyridin-3-yl)-3-methyl-2,4,12,13-tetrahydro-11H-5,7-(azenometheno)dipyrazolo[3,4-b:5′,1′-g][1]oxa[4,6,8]triazacycloundecine]: the Kp at 1 h in series [1] (brain, n=3) came to 2.8 ± 0.5. Besides, the Kp uu at 1 h in series [1] (brain, n=3) was found to be 0.87 ± 0.17. The concentration at 1 h in series [1] (setting [6]) stood at 48 ± 11 ng/g; in series [1] (setting [7]), 19 ± 8 ng/mL. The “fubrain (% free)” value in series [2] is given as 2.7 % free. Also, in series [2], the “fuplasma (% free)” value is given as 8.6 % free. In addition, the IC50 on LRRK2 WT [3] stood at 1.1 nM; on LRRK2 WT [4], 0.32 nM; at LRRK2 G2019S, 0.35 nM. For the same compound, the “Rate of metabolism classification (liver microsomal CLint)” value in series [5] (based on liver microsomal CLint values of Table 6) was “moderate to high rate of metabolism”. Further, the CLint scaled at 1 μM in series [5] is 33.8 mL/min/kg.

For `CCc1c2c(nn1-c1cccnc1OC)OCCCn1nc(Cl)c3cnc(nc31)N2` [Example 5, 8-Chloro-3-ethyl-2-(2-methoxypyridin-3-yl)-2,4,12,13-tetrahydro-11H-5,7-(azenometheno)dipyrazolo[3,4-b:5′,1′-g][1]oxa[4,6,8]triazacycloundecine], the Kp at 1 h in series [1] (brain, n=3) worked out at 1.9 ± 0.3. The compound further gave a Kp uu at 1 h in series [1] (brain, n=3) of 0.8 ± 0.13. Also, the concentration at 1 h in series [1] (setting [6]) is 7 ± 3 ng/g; in series [1] (setting [7]), 4 ± 0.8 ng/mL. The “fubrain (% free)” value in series [2] is reported as 5.2 % free. Moreover, in series [2], the “fuplasma (% free)” value stood at 12.3 % free. Also, the IC50 was determined as 4 nM at LRRK2 WT [3], 0.41 nM at LRRK2 WT [4] and 1.4 nM on LRRK2 G2019S. Moreover, the intrinsic clearance (CLint scaled) at 1 μM in series [5] was 23.2 mL/min/kg.

In turn, `Cc1c2c(nn1-c1cccnc1OC1CC1)OCCCn1nc(Cl)c3cnc(nc31)N2` [Example 16, 8-Chloro-2-(2-cyclopropoxypyridin-3-yl)-3-methyl-2,4,12,13-tetrahydro-11H-5,7-(azenometheno)dipyrazolo[3,4-b:5′,1′-g][1]oxa[4,6,8]triazacycloundecine] gave a Kp at 1 h in series [1] (brain, n=3) of 1.3 ± 0.2. This compound came in with a Kp uu at 1 h in series [1] (brain, n=3) of 0.32 ± 0.06. The concentration at 1 h is 141 ± 30 ng/g in series [1] (setting [6]) and 112 ± 18 ng/mL in series [1] (setting [7]). Also, in series [2], the “fubrain (% free)” value came out at 3.5 % free. The “fuplasma (% free)” value in series [2] came to 13.9 % free. The half-maximal inhibitory concentration (IC50) at LRRK2 WT [3] is 2.1 nM; at LRRK2 WT [4], 0.57 nM; on LRRK2 G2019S it was 0.93 nM. The compound further showed a CLint scaled at 1 μM in series [5] of 18.7 mL/min/kg.

In the case of `Cc1c2c(nn1-c1cccnc1OCF)OCCCn1nc(Cl)c3cnc(nc31)N2` [Example 18, 8-Chloro-2-(2-(fluoromethoxy)pyridin-3-yl)-3-methyl-2,4,12,13-tetrahydro-11H-5,7-(azenometheno)dipyrazolo[3,4-b:5′,1′-g][1]oxa[4,6,8]triazacycloundecine], the Kp at 1 h in series [1] (brain, n=3) turned out to be 2.8 ± 0.6. For the same compound, the Kp uu at 1 h in series [1] (brain, n=3) worked out at 1.04 ± 0.21. The results for the concentration at 1 h in series [1] (setting [6]) and in series [1] (setting [7]) were 343 ± 54 ng/g and 122 ± 11 ng/mL, respectively. The “fubrain (% free)” value in series [2] came to 4.7 % free. Besides, the “fuplasma (% free)” value in series [2] amounted to 12.8 % free. The results for the half-maximal inhibitory concentration (IC50) on LRRK2 WT [3], on LRRK2 WT [4] and on LRRK2 G2019S were 0.67 nM, 0.44 nM and 0.49 nM, respectively. Also, in series [5], the intrinsic metabolic clearance (CLint scaled) at 1 μM is 11.2 mL/min/kg.

Take `CCOc1ncccc1-n1nc2c(c1C)Nc1ncc3c(Cl)nn(c3n1)CCCO2` [Example 2, 8-Chloro-2-(2-ethoxypyridin-3-yl)-3-methyl-2,4,12,13-tetrahydro-11H-5,7-(azenometheno)dipyrazolo[3,4-b:5′,1′-g][1]oxa[4,6,8]triazacycloundecine]: in series [1] (setting [8]), the Kp at 0.5 h was found to be 1.2 ± 0.7. Moreover, in series [1] (setting [8]), the Kp uu at 0.5 h is 0.35 ± 0.18. Also, the concentration at 0.5 h in series [1] (brain, oral 10 mg/kg, 0.5 h, n=3, read-out: Total brain concentration) came out at 31 ± 11 ng/g; in series [1] (plasma, oral 10 mg/kg, 0.5 h, n=3, read-out: Total plasma concentration) it was 32 ± 18 ng/mL. In addition, the “fubrain (% free)” value in series [2] turned out to be 2.7 % free. In series [2], the “fuplasma (% free)” value was 9.7 % free. Further, the IC50 on LRRK2 WT [3] was determined as 0.98 nM; at LRRK2 WT [4], 0.28 nM; on LRRK2 G2019S it was 0.35 nM. In addition, the CLint scaled at 1 μM in series [5] is 20.8 mL/min/kg.

Values taken from patent US11958865B1, “Leucine-rich repeat kinase 2 (LRRK2) inhibitors” (H. Lundbeck A/S, priority 2022, dated 2024).
